Data: publication PMC8058163 (Clinical pharmacology and therapeutics, 2020)
Like-named read-outs stand apart in the source and are kept apart here.

Tests used:
[1] = clinical; details: both, human, in vivo

CN(C)C(=N)N=C(N)N [Metformin, metformin]
AUC(0-inf) [1]: 3.8 µM·h
AUC(0-t) [1]: 3.6 µM·h
CL renal [1]: 700 mL/min
Cmax [1]: 540 nM
AUC(0-inf) ([1]; po): 5 µM·h
AUC(0-t) ([1]; po): 4.7 µM·h
CL renal ([1]; po): 683 mL/min
Cmax ([1]; po): 750 nM

CC(C)c1nc(N(C)S(C)(=O)=O)nc(-c2ccc(F)cc2)c1/C=C/[C@@H](O)C[C@@H](O)CC(=O)O [Rosuvastatin acid, rosuvastatin]
AUC0–24, goldenseal exposure / baseline ratio (both, human, in vivo): 1.01 [0.91–1.13]
ClR, goldenseal exposure / baseline ratio (both, human, in vivo): 0.96 [0.89–1.03]
Cmax, goldenseal exposure / baseline ratio (both, human, in vivo): 1.08 [0.94–1.22]
AUC(0-t) [1]: 0.06 µM·h
CL renal [1]: 247 mL/min
Cmax [1]: 7.9 nM
AUC(0-t) ([1]; po): 0.059 µM·h
CL renal ([1]; po): 257 mL/min
Cmax ([1]; po): 7.4 nM

Cc1ncc2n1-c1ccc(Cl)cc1C(c1ccccc1F)=NC2 [Midazolam, midazolam]
increase of geometric mean Cmax (in the presence of goldenseal): 31%
increase of systemic exposure (in the presence of goldenseal): ~ 40%
AUC(0-inf) [1]: 0.096 µM·h
AUC(0-t) [1]: 0.086 µM·h
CL renal [1]: 1.17 mL/min
AUC(0-inf) ([1]; po): 0.067 µM·h
AUC(0-t) ([1]; po): 0.062 µM·h
CL renal ([1]; po): 0.833 mL/min
Cmax ([1]; po): 26 nM
half-life ([1]; po): 3.9 h

CC(C)c1nc(N(C)S(C)(=O)=O)nc(-c2ccc(F)cc2)c1/C=C/[C@@H]1C[C@@H](O)CC(=O)O1 [Rosuvastatin lactone, rosuvastatin lactone]
AUC0–72 (human, in vivo): 27 [23–32] nM*h
Cmax (human, in vivo): 1.5 nM
AUC0–72 (human, in vivo, po): 28 [24–32] nM*h
Cmax (human, in vivo, po): 1.5 nM
